Earlier results, collected in US6939558B2, “Intravaginal devices containing progesterone for estrus synchronization and related proceses” (Akzo Nobel N.V., priority 2001, dated 2005).

Test system: bovines
Details: 1 mg Estradiol Benzoate 24 hours after removal of the device

C[C@]12CC[C@@H]3c4ccc(OC(=O)c5ccccc5)cc4CC[C@H]3[C@@H]1CC[C@@H]2O [Estradiol Benzoate]
ovulation after removal of the device: 70 h
